Columns and labels:
Cavia porcellus [1] = species on record: Cavia porcellus; assay: Induction of delayed type hypersensitivity in ABA-BSA immunized Hartley Guinea pigs assessed as reduction in skin lesions at 100 ug measured for 24 hrs; format: functional; settings: dose 100 µg
Cavia porcellus [2] = species on record: Cavia porcellus; assay: Induction of delayed type hypersensitivity in ABA-BSA immunized Hartley Guinea pigs assessed as reduction in skin lesions at 100 ug measured for 48 hrs; format: functional; settings: dose 100 µg
[3] = molecular target: T1, Nuclear factor NF-kappa-B complex (Homo sapiens) (UniProt Q00653+P19838+Q04206); assay: Activation of NF-KappaB (unknown origin) expressed in HEK293T cells assessed as fold change at 1 uM incubated for 12 hrs by Renilla luciferase assay; format: cell-based; settings: filed as activator
[4] = molecular target: T1, Nuclear factor NF-kappa-B complex (Homo sapiens); assay: Activation of NF-KappaB (unknown origin) expressed in HEK293T cells assessed as fold change at 10 ng incubated for 12 hrs by Renilla luciferase assay; format: cell-based; settings: filed as activator
[5] = molecular target: T1, Nuclear factor NF-kappa-B complex (Homo sapiens); assay: Activation of NF-KappaB (unknown origin) expressed in HEK293T cells assessed as fold change at 10 nM incubated for 12 hrs by Renilla luciferase assay; format: cell-based; settings: filed as activator
[6] = molecular target: T1, Nuclear factor NF-kappa-B complex (Homo sapiens); assay: Activation of NF-KappaB (unknown origin) expressed in HEK293T cells assessed as fold change at 100 nM incubated for 12 hrs by Renilla luciferase assay; format: cell-based; settings: filed as activator
[7] = molecular target: T1, Nuclear factor NF-kappa-B complex (Homo sapiens); assay: Activation of NF-KappaB (unknown origin) expressed in HEK293T cells assessed as fold change at 1000 nM incubated for 12 hrs by Renilla luciferase assay; format: cell-based; settings: filed as activator

T1 sequence (P19838 whole entry, looked up): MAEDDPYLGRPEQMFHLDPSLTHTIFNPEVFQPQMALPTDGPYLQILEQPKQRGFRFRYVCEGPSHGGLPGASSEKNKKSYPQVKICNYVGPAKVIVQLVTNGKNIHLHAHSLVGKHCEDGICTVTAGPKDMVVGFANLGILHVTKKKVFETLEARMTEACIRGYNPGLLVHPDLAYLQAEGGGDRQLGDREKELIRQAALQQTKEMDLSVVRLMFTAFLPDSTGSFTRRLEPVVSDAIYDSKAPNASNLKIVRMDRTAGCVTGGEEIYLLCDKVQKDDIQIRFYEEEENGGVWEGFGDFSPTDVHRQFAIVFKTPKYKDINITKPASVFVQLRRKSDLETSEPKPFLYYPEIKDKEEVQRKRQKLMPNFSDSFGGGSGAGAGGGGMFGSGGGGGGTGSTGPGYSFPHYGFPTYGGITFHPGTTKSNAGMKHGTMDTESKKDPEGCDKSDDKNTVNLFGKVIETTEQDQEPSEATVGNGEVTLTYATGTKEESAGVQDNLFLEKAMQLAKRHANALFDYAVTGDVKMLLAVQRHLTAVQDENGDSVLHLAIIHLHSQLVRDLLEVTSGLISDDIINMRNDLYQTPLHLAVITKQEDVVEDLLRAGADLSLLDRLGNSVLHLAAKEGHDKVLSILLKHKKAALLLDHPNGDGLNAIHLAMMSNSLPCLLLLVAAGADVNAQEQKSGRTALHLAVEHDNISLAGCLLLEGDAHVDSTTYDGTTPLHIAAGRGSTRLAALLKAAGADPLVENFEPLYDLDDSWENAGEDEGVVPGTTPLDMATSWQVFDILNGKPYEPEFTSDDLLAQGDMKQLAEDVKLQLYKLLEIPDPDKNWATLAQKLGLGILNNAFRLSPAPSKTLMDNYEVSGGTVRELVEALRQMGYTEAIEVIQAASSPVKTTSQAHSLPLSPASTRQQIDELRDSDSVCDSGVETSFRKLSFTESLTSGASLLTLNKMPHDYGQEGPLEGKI
T1 sequence (Q00653 whole entry, looked up): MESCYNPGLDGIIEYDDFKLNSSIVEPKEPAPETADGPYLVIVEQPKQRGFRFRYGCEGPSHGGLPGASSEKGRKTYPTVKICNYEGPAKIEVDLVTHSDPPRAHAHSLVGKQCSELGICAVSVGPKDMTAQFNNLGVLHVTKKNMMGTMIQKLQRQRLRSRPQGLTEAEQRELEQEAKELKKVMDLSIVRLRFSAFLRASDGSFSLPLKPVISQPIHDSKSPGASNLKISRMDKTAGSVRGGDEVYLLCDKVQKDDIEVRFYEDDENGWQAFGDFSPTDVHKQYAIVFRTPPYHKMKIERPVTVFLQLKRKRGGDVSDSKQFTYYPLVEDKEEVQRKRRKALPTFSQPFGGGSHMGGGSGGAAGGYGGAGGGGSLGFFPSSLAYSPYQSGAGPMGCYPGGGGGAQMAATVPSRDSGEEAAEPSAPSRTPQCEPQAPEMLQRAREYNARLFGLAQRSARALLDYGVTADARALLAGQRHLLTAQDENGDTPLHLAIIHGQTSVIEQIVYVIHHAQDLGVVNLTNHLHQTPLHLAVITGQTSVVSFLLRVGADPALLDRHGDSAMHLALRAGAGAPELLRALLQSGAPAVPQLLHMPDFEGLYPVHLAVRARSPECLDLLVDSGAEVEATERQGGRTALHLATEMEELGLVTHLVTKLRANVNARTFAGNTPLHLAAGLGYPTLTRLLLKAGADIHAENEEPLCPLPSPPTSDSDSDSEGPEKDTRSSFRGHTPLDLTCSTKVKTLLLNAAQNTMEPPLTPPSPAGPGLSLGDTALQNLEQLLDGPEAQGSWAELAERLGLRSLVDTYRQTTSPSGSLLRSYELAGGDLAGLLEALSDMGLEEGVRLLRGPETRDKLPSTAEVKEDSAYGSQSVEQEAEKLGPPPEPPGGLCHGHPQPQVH
T1 sequence (Q04206 whole entry, looked up): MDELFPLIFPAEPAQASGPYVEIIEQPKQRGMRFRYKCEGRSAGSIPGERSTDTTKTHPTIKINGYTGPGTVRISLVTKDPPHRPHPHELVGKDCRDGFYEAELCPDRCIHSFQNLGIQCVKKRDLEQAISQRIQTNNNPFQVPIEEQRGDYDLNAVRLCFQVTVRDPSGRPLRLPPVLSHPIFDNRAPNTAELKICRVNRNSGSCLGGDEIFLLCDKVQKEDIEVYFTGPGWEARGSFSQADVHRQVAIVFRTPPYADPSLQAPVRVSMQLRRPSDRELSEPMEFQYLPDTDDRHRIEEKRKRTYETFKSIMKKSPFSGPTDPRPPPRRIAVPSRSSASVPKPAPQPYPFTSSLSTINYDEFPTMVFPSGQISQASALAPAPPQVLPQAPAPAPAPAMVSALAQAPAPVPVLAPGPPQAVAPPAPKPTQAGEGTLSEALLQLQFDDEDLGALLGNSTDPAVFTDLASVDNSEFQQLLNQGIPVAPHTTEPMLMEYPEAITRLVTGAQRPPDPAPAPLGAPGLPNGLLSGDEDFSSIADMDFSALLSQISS

Row | fold change (FC) [3] | fold change (FC) [4] | fold change (FC) [5] | fold change (FC) [6] | fold change (FC) [7] | Structure (SMILES) | further results
1 | – | – | – | – | – | CCCCCCCCCCCCCCCCCC(=O)NC[C@H]1O[C@@H](O)[C@H](NC(C)=O)[C@@H](O[C@H](C)C(=O)N[C@@H](C)C(=O)N[C@H](CCC(=O)O)C(N)=O)[C@@H]1O | Activity (Cavia porcellus [1]): 20.5 mm; Activity (Cavia porcellus [2]): 15.8 mm
2 | – | – | – | – | – | CCCCCCCC(=O)NC[C@H]1O[C@@H](O)[C@H](NC(C)=O)[C@@H](O[C@H](C)C(=O)N[C@@H](C)C(=O)N[C@H](CCC(=O)O)C(N)=O)[C@@H]1O | Activity (Cavia porcellus [1]): 16.7 mm; Activity (Cavia porcellus [2]): 8.8 mm
3 | 5 | – | – | – | – | CO[C@@H]1O[C@H](CO)[C@@H](O)[C@H](O[C@H](C)C(=O)N[C@@H](C)C(=O)N[C@H](CCC(=O)O)C(N)=O)[C@H]1NC(=O)Cc1c(F)c(F)c(F)c(F)c1F | –
4 | – | 1 | 1 | 1 | 2.9 | CC(=O)N[C@@H]1[C@@H](O[C@H](C)C(=O)N[C@@H](C)C(=O)N[C@H](CCC(=O)O)C(=O)NC2CCCCC2)[C@H](O)[C@@H](CO)O[C@H]1O | –
5 | – | 7.5 | 7.5 | 6.5 | 6.3 | CCCCCCCCCCCCOC(=O)[C@@H](CCC(=O)O)NC(=O)[C@H](C)NC(=O)[C@@H](C)O[C@H]1[C@H](O)[C@@H](CO)O[C@@H](O)[C@@H]1NC(C)=O | –
6 | – | 2.5 | 2.5 | 4.5 | 6.1 | CC(=O)N[C@@H]1[C@@H](O[C@H](C)C(=O)N[C@@H](C)C(=O)N[C@H](CCC(=O)O)C(=O)O)[C@H](O)[C@@H](CO)O[C@H]1O | –
7 | 5.4 | – | – | – | – | C[C@H](NC(=O)[C@@H](C)O[C@H]1[C@H](O)[C@@H](CO)O[C@@H](O)[C@@H]1NC(=O)Cc1c(F)c(F)c(F)c(F)c1F)C(=O)N[C@H](CCC(=O)O)C(N)=O | –
8 | – | – | – | – | – | CCCCCCCCCCCCCCCCCCCC(=O)NC[C@H]1O[C@@H](O)[C@H](N)[C@@H](O[C@H](C)C(=O)N[C@@H](C)C(=O)N[C@H](CCC(=O)O)C(N)=O)[C@@H]1O.Cl | Activity (Cavia porcellus [1]): 8 mm
9 | 4.4 | – | – | – | – | COCC(=O)N[C@@H]1[C@@H](O[C@H](C)C(=O)N[C@@H](C)C(=O)N[C@H](CCC(=O)O)C(N)=O)[C@H](O)[C@@H](CO)O[C@H]1O | –
10 | 2.4 | – | – | – | – | CCCCCCCCC(=O)N[C@@H]1[C@@H](O[C@H](C)C(=O)N[C@@H](C)C(=O)N[C@H](CCC(=O)O)C(N)=O)[C@H](O)[C@@H](CO)O[C@H]1O | –
11 | – | – | – | – | – | CC(=O)N[C@@H]1[C@@H](O[C@H](C)C(=O)N[C@H](C(=O)N[C@H](CCC(=O)O)C(N)=O)C(C)C)[C@H](O)[C@@H](CO)O[C@H]1O | Activity (Cavia porcellus [1]): 25.2 mm; Activity (Cavia porcellus [2]): 24.6 mm
12 | – | 1.1 | 1.1 | 1.1 | 2.1 | CCCCNC(=O)[C@@H](CCC(=O)O)NC(=O)[C@H](C)NC(=O)[C@@H](C)O[C@H]1[C@H](O)[C@@H](CO)O[C@@H](O)[C@@H]1NC(C)=O | –
13 | – | – | 1.85 | 1.87 | 1.9 | CC(=O)N[C@@H]1[C@@H](O[C@H](C)C(=O)N[C@@H](C)C(=O)N[C@H](CC(=O)O)C(N)=O)[C@H](O)[C@@H](CO)O[C@H]1O | –
14 | 4.5 | – | – | – | – | C[C@H](NC(=O)[C@@H](C)O[C@H]1[C@H](O)[C@@H](CO)O[C@@H](O)[C@@H]1NC(=O)CN)C(=O)N[C@H](CCC(=O)O)C(N)=O | –
15 | – | 5.3 | 5.3 | 7 | 4.9 | CCCCCCCCCCCCCCCCOC(=O)[C@@H](CCC(=O)O)NC(=O)[C@H](C)NC(=O)[C@@H](C)O[C@H]1[C@H](O)[C@@H](CO)O[C@@H](O)[C@@H]1NC(C)=O | –
16 | 5 | – | – | – | – | C[C@H](NC(=O)[C@@H](C)O[C@H]1[C@H](O)[C@@H](CO)O[C@@H](OCCCCN)[C@@H]1NC(=O)CO)C(=O)N[C@H](CCC(=O)O)C(N)=O | –
17 | 4.6 | – | – | – | – | C[C@H](NC(=O)[C@@H](C)O[C@@H]1[C@@H](N)[C@H](O)O[C@H](CO)[C@H]1O)C(=O)N[C@H](CCC(=O)O)C(N)=O | –
18 | – | 2.3 | 2.3 | 4.7 | 6.5 | CCOC(=O)CC[C@@H](NC(=O)[C@H](C)NC(=O)[C@@H](C)O[C@H]1[C@H](O)[C@@H](CO)O[C@@H](O)[C@@H]1NC(C)=O)C(=O)OCC | –
19 | 3.85 | – | – | – | – | C[C@H](NC(=O)[C@@H](C)O[C@H]1[C@H](O)[C@@H](CO)O[C@@H](O)[C@@H]1NC(=O)Cc1ccccc1)C(=O)N[C@H](CCC(=O)O)C(N)=O | –
20 | 5.55 | – | – | – | – | COCC(=O)N[C@H]1[C@H](OC)O[C@H](CO)[C@@H](O)[C@@H]1O[C@H](C)C(=O)N[C@@H](C)C(=O)N[C@H](CCC(=O)O)C(N)=O | –
21 | – | 5.7 | 5.7 | 7.35 | 5.7 | CCCCCCCCCCCCCCCCCCCCOC(=O)[C@@H](CCC(=O)O)NC(=O)[C@H](C)NC(=O)[C@@H](C)O[C@H]1[C@H](O)[C@@H](CO)O[C@@H](O)[C@@H]1NC(C)=O | –

Row | fold change (FC) [3] | fold change (FC) [4] | fold change (FC) [5] | fold change (FC) [6] | fold change (FC) [7] | Structure (SMILES) | further results
22 | – | 0.8 | 0.8 | 0.9 | 2.4 | CC(=O)N[C@@H]1[C@@H](O[C@H](C)C(=O)N[C@@H](C)C(=O)N[C@H](CCC(=O)O)C(=O)NCC(F)(F)C(F)(F)F)[C@H](O)[C@@H](CO)O[C@H]1O | –
23 | – | 1.6 | 1.6 | 2.8 | 5.6 | CCOC(=O)CC[C@@H](NC(=O)[C@H](C)NC(=O)[C@@H](C)O[C@H]1[C@H](O)[C@@H](CO)O[C@@H](O)[C@@H]1NC(C)=O)C(N)=O | –
24 | – | 1.1 | 1.1 | 1.15 | 2.8 | CCCCCCNC(=O)[C@@H](CCC(=O)O)NC(=O)[C@H](C)NC(=O)[C@@H](C)O[C@H]1[C@H](O)[C@@H](CO)O[C@@H](O)[C@@H]1NC(C)=O | –
25 | 4.45 | – | – | – | – | CO[C@@H]1O[C@H](CO)[C@@H](O)[C@H](O[C@H](C)C(=O)N[C@@H](C)C(=O)N[C@H](CCC(=O)O)C(N)=O)[C@H]1NC(=O)Cc1ccccc1 | –
26 | 6.2 | – | – | – | – | CO[C@@H]1O[C@H](CO)[C@@H](O)[C@H](O[C@H](C)C(=O)N[C@@H](C)C(=O)N[C@H](CCC(=O)O)C(N)=O)[C@H]1N | –
27 | 4.5 | – | – | – | – | C[C@H](NC(=O)[C@@H](C)O[C@H]1[C@H](O)[C@@H](CO)O[C@@H](O)[C@@H]1NC(=O)CO)C(=O)N[C@H](CCC(=O)O)C(N)=O | –
28 | – | 4.2 | 4.2 | 6.6 | 6.55 | CC(=O)N[C@@H]1[C@@H](O[C@H](C)C(=O)N[C@@H](C)C(=O)N[C@H](CCC(=O)O)C(=O)OCCCl)[C@H](O)[C@@H](CO)O[C@H]1O | –
29 | – | 4 | 4 | 6.3 | 6.6 | CCOC(=O)[C@@H](CCC(=O)O)NC(=O)[C@H](C)NC(=O)[C@@H](C)O[C@H]1[C@H](O)[C@@H](CO)O[C@@H](O)[C@@H]1NC(C)=O | –
30 | – | 4.6 | 4.6 | 6.8 | 6.55 | CC(=O)N[C@@H]1[C@@H](O[C@H](C)C(=O)N[C@@H](C)C(=O)N[C@H](CCC(=O)O)C(=O)OC2CCCCC2)[C@H](O)[C@@H](CO)O[C@H]1O | –
31 | – | 6.1 | 6.1 | 6.9 | 6.3 | CCCCCCCCOC(=O)[C@@H](CCC(=O)O)NC(=O)[C@H](C)NC(=O)[C@@H](C)O[C@H]1[C@H](O)[C@@H](CO)O[C@@H](O)[C@@H]1NC(C)=O | –
32 | 5.8 | – | – | – | – | C[C@H](NC(=O)CO[C@H]1[C@H](O)[C@@H](CO)O[C@@H](O)[C@@H]1NC(=O)CO)C(=O)N[C@H](CCC(=O)O)C(N)=O | –
33 | – | – | – | – | – | CCCCCCCCCCCCCCCCCC(=O)N[C@@H]1[C@@H](O[C@H](C)C(=O)N[C@H](C(=O)N[C@H](CCC(=O)O)C(N)=O)C(C)C)[C@H](O)[C@@H](CN)O[C@H]1O | Activity (Cavia porcellus [1]): 10.5 mm
34 | 5.25 | – | – | – | – | CCCCC(=O)N[C@H]1[C@H](OC)O[C@H](CO)[C@@H](O)[C@@H]1O[C@H](C)C(=O)N[C@@H](C)C(=O)N[C@H](CCC(=O)O)C(N)=O | –
35 | 4.5 | – | – | – | – | CCCCC(=O)N[C@@H]1[C@@H](O[C@H](C)C(=O)N[C@@H](C)C(=O)N[C@H](CCC(=O)O)C(N)=O)[C@H](O)[C@@H](CO)O[C@H]1O | –
36 | 4.3 | – | – | – | – | CCCCCCCCC(=O)N[C@H]1[C@H](OC)O[C@H](CO)[C@@H](O)[C@@H]1O[C@H](C)C(=O)N[C@@H](C)C(=O)N[C@H](CCC(=O)O)C(N)=O | –
37 | – | 5.6 | 5.6 | 7 | 6 | CC(=O)N[C@@H]1[C@@H](O[C@H](C)C(=O)N[C@@H](C)C(=O)N[C@H](CCC(=O)O)C(=O)OCCc2ccccc2)[C@H](O)[C@@H](CO)O[C@H]1O | –
38 | – | 4.7 | 4.7 | 7.1 | 7.8 | CCCCOC(=O)[C@@H](CCC(=O)O)NC(=O)[C@H](C)NC(=O)[C@@H](C)O[C@H]1[C@H](O)[C@@H](CO)O[C@@H](O)[C@@H]1NC(C)=O | –
39 | 4.5 | – | – | – | – | CCCCCO[C@@H]1O[C@H](CO)[C@@H](O)[C@H](O[C@H](C)C(=O)N[C@@H](C)C(=O)N[C@H](CCC(=O)O)C(N)=O)[C@H]1NC(=O)CO | –
40 | 4.85 | – | – | – | – | CCCCCCCCCCCO[C@@H]1O[C@H](CO)[C@@H](O)[C@H](O[C@H](C)C(=O)N[C@@H](C)C(=O)N[C@H](CCC(=O)O)C(N)=O)[C@H]1NC(=O)CO | –
41 | 5.9 | – | – | – | – | CO[C@@H]1O[C@H](CO)[C@@H](O)[C@H](O[C@H](C)C(=O)N[C@@H](C)C(=O)N[C@H](CCC(=O)O)C(N)=O)[C@H]1NC(=O)CO | –
42 | – | – | – | – | – | CCCCCCCCCCCCCCCCCC(=O)NC[C@H]1O[C@@H](O)[C@H](N)[C@@H](O[C@H](C)C(=O)N[C@H](C(=O)N[C@H](CCC(=O)O)C(N)=O)C(C)C)[C@@H]1O | Activity (Cavia porcellus [1]): 4.3 mm

Source: ChEMBL document CHEMBL5550132, “Structure-activity relationship in NOD2 agonistic muramyl dipeptides” (Eur J Med Chem, 2024)
